In brackets after ≈: the same amount, converted by molar mass.
Key:
[1] = system: P. falciparum (NF54 strain, clone A149); assay: In vitro 3H-hypoxanthine incorporation test with P. falciparum NF 54; format: cell-based, Plasmodium falciparum; details: NF 54, clone A149; six repeats; max. concentration 50 or 5 μg/ml
Description: Continuous in vitro cultures of asexual erythrocytic stages of P. falciparum (strain NF 54/64, clone A1A9) were maintained following essentially the method of Trager and Jensen (Science, 193, 673-675, 1976) at 37° C. under an atmosphere of 5% CO2, 5% O2, and 90% N2. The host cells were human erythrocytes (A or O Rh+). The culture medium was RPMI 1640 (Gibco), containing HEPES (BDH; 4.57 gL^−1), glucose (Sigma; 1.54 gL^−1), 5% NaHCO3 (Merck; 34.78 mlL^−1), and gentamycin (Merck; 8.70 mlL^−1) supplemented with 10% human plasma (A Rh+). Parasites were subinoculated every 3-4 days with initial conditions of 1% parasitemia and 1% hematocrit.
(§1) In vitro testing with P. falciparum was as follows. Each compound was dissolved in DMSO at a concentration of 20 mg ml^−1. These solutions were further diluted with physiological saline to obtain a stock solution of 500 μg ml^−1. Each test substance was applied in a series of seven, 4-fold dilutions (maximum concentrations 50 or 5 μg ml^−1). Each compound was tested in 6-fold repeats. Chloroquine was tested similarly, as a positive control.
(§2) The test protocol was performed in vitro, based upon the method of Desjardins, et al. (Antimicrobial Agents Chemother., 16, 710-715, 1979). The parasites (200 μl of a suspension with initial parasitemia of 0.5% and hematocrit of 1.5%) were incubated for 24 h in microtitre plates (Falcon MicroTest III) in hypoxanthine-free medium in the presence of 25 μl of test solution. The plates contained a negative control (6 wells with non-parasitized RBC's, no drug) and a positive control (6 wells with parasitized RBC's no drug). Thereafter, 25 μl of ^3H-hypoxanthine solution (Amersham) was added (0.5 μCi well ^−1), and the parasites were incubated for a further period of 18 h. Each well was harvested with a Cell Harvester (Nunc). The filter papers were dried for 2 h at 52° C., and their radioactivity was measured by liquid scintillation counting in Optiscint HiSafe (LKB Pharmacia).
(§3) The mean results, obtained as counts per min (cpm), were expressed as percentages of incorporation or growth inhibition. The sigmoid dose-response curve was then linearized by probit analysis with the aid of software provided by IWONL (Gent), adapted by G. Timperman and used to derive the IC50 values.

P. berghei (Anka) = assay: In vitro 3H-hypoxanthine incorporation test with P. berghei (Anka); format: cell-based, Plasmodium berghei; details: Anka strain
Description: as §1, §2, §3
For experiments with P. berghei (Anka strain), the parasites were maintained, and the in vitro tests performed essentially the same as above, except for the following modification. In the case of tests using P. berghei, the parasites were incubated in the same conditions as for P. falciparum (above) except that the incubations were started immediately in the presence of the ^3H-hypoxanthine and for 24 hour total duration (i.e., no delay in the addition of the ^3H-hypoxanthine). As before, the incorporated radioactivity was used as a-measure for parasite growth.

[2] = system: P. falciparum (K1 strain); assay: In vitro 3H-hypoxanthine incorporation test with chloroquine-resistant P. falciparum K1; format: cell-based, Plasmodium falciparum
Description: Selected compounds were also tested against drug-resistant parasites. The method was the same as above except for the following modifications. The parasite used was the chloroquine-resistant strain, K1, maintained essentially according to Desjardins, et al. (supra, 1979). The culture medium was RPMI-1640 containing TES (Sigma; 7.64 gL^−1), glucose (BDH; 1.67 gL^−1), NaHCO3 (BDH; 1.94 gL^−1), and gentamycin (Nicholas; 30 mgL^−1) supplemented with 10% human serum (A RH+). Parasites were subinoculated every 3-4 days with initial conditions of 1% parasitemia and 2.5% hematocrit. For the testing, small aliquots of test material were dissolved in 20 μl EtOH and RPMI 1640 to give solutions of 1 or 10 mg ml^−1. Each was applied in a series of twelve, […] dilutions (final […] ranging from 50 to 1.19×10^−3 μg ml^−1). Chloroquine diphosphate (Sigma) was used in the same experiments as a reference and also in twelve, 4-fold dilutions (final concentrations 2×10^−5-1.19×10^−12M). Each compound was tested in duplicate.
Testing was performed in vitro based upon the method of Desjardins, et al (supra, 1979), as modified by O'Neill, et al. (Planta Med., 51, 394-399, 1985) and Ekong, et al. (Biochem. Pharmacol., 40, 297-301, 1990). The parasites (50 μl initial parasitemia of 1%, hematocrit of 5%) were incubated for 24 h in microtitre plates (Nunc) in normal (not hypoxanthine-depleted) medium in the presence of 50 μl of test solution. Controls were set up in each test by preparing 12-24 wells with non-parasitized RBC's and no test solution and 12-24 wells with parasitized RBC's and no test compound. Thereafter, 5 μl all of ^3H-hypoxanthine (Amersham) were added (0.2 μCi well ^−1), and the parasites incubated for a further period of 18 h. Each well was harvested with a Cell Harvester (Skatron). Glass fibre filters were dried briefly. Radioactivity was measured by liquid scintillation counting in Ecoscint (National Diagnostics).
The results obtained as cpm were expressed as percentages of incorporation of growth inhibition. The dose-related part of the sigmoidal curves obtained were linearized by regression analysis with the aid of software developed by S. Grant (I.SHTM) and used to calculate the IC50 values.

[3] = system: Plasmodium berghei (Anka strain); assay: In vivo antimalarial test in OF1 mice inoculated with P. berghei; details: for Parasitemia (%) from blood smears at day 4: N=6; for Parasitemia (%) at day 4 / Parasitemia (%) at day 10: average (95% CI)
Description: Outbred, female, six-week-old OF1 mice (six mice per group treated and nontreated [control]) were inoculated intraperitoneally on day 0 with 10^6 P. berghei (Anka strain) blood forms. Two hours later, they were administered orally 50 mg/kg of dioncopeltine A or dioncophylline B. A second, third, and fourth treatment (50 mg/kg each) was given after 24, 48 and 72 h, respectively (days 1, 2, and 3). […] The parasitemia (%) in the control (not drug-treated) group was 3.50 (range 3.02-3.97; N=6). In the dioncopeltine A treated group, the parasitemia was 0.03 (range 0.01-0.06; N=6); in the dioncophylline B treated group, the parasitemia was […] (range 0.66-3.07; N=6).
The in vivo antimalarial testing was performed as described above, except that more doses and different treatment schedules were employed, as described in Tables 3 and 4.

[4] = 50 mg/kg oral on days 0, 1, 2, 3, OF1 mice
[5] = 50 mg/kg/d oral, 1 day of treatment
[6] = 50 mg/kg/d oral, 2 days of treatment
[7] = 50 mg/kg/d oral, 3 days of treatment
[8] = 50 mg/kg/d oral, 4 days of treatment
[9] = oral treatment with 4×50 mg/kg/d

6-O-demethyl-8-O-methyl-7-epi-ancistrobrevine C
IC50 P. falciparum NF54 strain [1]: 10.326 µg/mL

6-deoxy-N-methyl-ancistrocladine
IC50 P. falciparum NF54 strain [1]: 10.079 µg/mL

7-epi-dioncophylline A
IC50 P. falciparum NF54 strain [1]: 0.190 µg/mL

COc1cccc2c(-c3ccc4c(c3O)C(C)N(C)C(C)C4)c(C)cc(OC)c12 (single isomer, unassigned) [N-methyl-dioncophylline A (atropisomers)]
IC50 P. falciparum NF54 strain [1]: 17.411 µg/mL (≈ 44.5 µM)

COc1c(-c2c(C)cc(OC)c3c(O)cccc23)ccc2c1C(C)NC(C)C2 (stereo not drawn) [8-O-methyl-5′-O-demethyl-7-epi-dioncophylline A]
IC50 P. berghei, Anka (P. berghei (Anka)): 4.580 µg/mL (≈ 12.1 µM)
IC50 P. falciparum NF54 strain [1]: 1.584 µg/mL (≈ 4.2 µM)

COc1c(C)nc(C)c2c(OC)c(-c3c(C)cc(OC)c4c(OC)cccc34)ccc12 [(±)-dioncophyllacine A]
IC50 P. falciparum NF54 strain [1]: 17.571 µg/mL (≈ 42.1 µM)

COc1cc2c(c(OC)c1-c1ccc(OC)c3c(OC)cc(C)cc13)[C@@H](C)N(C)[C@@H](C)C2 [Ancistrobrevine A]
IC50 P. falciparum NF54 strain [1]: 19.336 µg/mL (≈ 44.4 µM)

COc1cc(O)c(-c2c(C)cc(OC)c3c(OC)cccc23)c2c1[C@H](C)N[C@@H](C)C2 [Ancistrocladine]
IC50 P. falciparum, K1 strain [2]: 25.350 µg/mL (≈ 62.2 µM)
IC50 P. berghei, Anka (P. berghei (Anka)): >50 µg/mL
IC50 P. falciparum NF54 strain [1]: 18.353 µg/mL (≈ 45 µM)

COc1cc(CO)c(-c2ccc3c(c2O)[C@@H](C)N[C@H](C)C3)c2cccc(O)c12 [Dioncopeltine A]
Signs of toxicity or other side effects [3, 4]: In neither of the treated groups were any signs of toxicity or other side effects observed
Parasitemia (%) from blood smears at day 4 [3, 4]: 0.03%
IC50 P. falciparum, K1 strain [2]: 0.330 µg/mL (≈ 0.87 µM)
IC50 P. berghei, Anka (P. berghei (Anka)): 0.038 µg/mL (≈ 0.1 µM)
IC50 P. falciparum NF54 strain [1]: 0.021 µg/mL (≈ 0.0553 µM)

COc1cccc2c(-c3ccc4c(c3O)[C@@H](C)N[C@H](C)C4)c(C)cc(OC)c12 [Dioncophylline A]
IC50 P. falciparum, K1 strain [2]: 0.860 µg/mL (≈ 2.28 µM)
IC50 P. berghei, Anka (P. berghei (Anka)): 0.961 µg/mL (≈ 2.55 µM)
IC50 P. falciparum NF54 strain [1]: 1.443 µg/mL (≈ 3.82 µM)

COc1cc(C)cc2ccc(-c3ccc4c(c3O)[C@@H](C)N[C@H](C)C4)c(O)c12 [Dioncophylline B]
Parasitemia (%) from blood smears at day 4 [3, 4]: 1.86%
IC50 P. falciparum, K1 strain [2]: 0.063 µg/mL (≈ 0.173 µM)
IC50 P. berghei, Anka (P. berghei (Anka)): 0.228 µg/mL (≈ 0.627 µM)
IC50 P. falciparum NF54 strain [1]: 0.224 µg/mL (≈ 0.616 µM)

COc1cc(C)c(-c2ccc(O)c3c2C[C@@H](C)N[C@@H]3C)c2cccc(O)c12 [Dioncophylline C]
Parasitemia (%) at day 4 ([3]; 3.125 mg/kg/d oral, days 0-3): 5.36 (3.96 − 6.75) %
Parasitemia (%) at day 4 ([3]; 6.25 mg/kg/d oral, days 0-3): 4.42 (2.77 − 6.06) %
Parasitemia (%) at day 4 ([3]; 12.5 mg/kg/d oral, days 0-3): 3.36 (2.35 − 4.37) %
Parasitemia (%) at day 10 ([3]; 12.5 mg/kg/d oral, days 0-3): 26.91 (0.00 − 60.36) %
Parasitemia (%) at day 4 ([3]; 25 mg/kg/d oral, days 0-3): 0.62 (0.00 − 1.34) %
Parasitemia (%) at day 10 ([3]; 25 mg/kg/d oral, days 0-3): 29.82 (11.20 − 48.43) %
Parasitemia (%) at day 4 [3, 5]: 0.02 (0.00 − 0.05) %
Parasitemia (%) at day 10 [3, 5]: 7.87 (0.00 − 23.92) %
Parasitemia (%) at day 4 [3, 6]: 0.01 (0.00 − 0.02) %
Parasitemia (%) at day 10 [3, 6]: 0.41 (0.00 − 1.38) %
Number of OF1 negative (neg) at day 10 ([3]; 50 mg/kg/d oral, 2 days of treatment, n = 5): (2 0F1 neg)
Parasitemia (%) at day 4 [3, 7]: 0.00 (0.00 − 0.00) %
Parasitemia (%) at day 10 [3, 7]: 0.003 (0.000 − 0.012) %
Number of OF1 negative (neg) at day 10 ([3]; 50 mg/kg/d oral, 3 days of treatment, n = 6): (5 0F1 neg)
Parasitemia (%) at day 4 [3, 8]: 0.00 (0.00 − 0.00) %
Parasitemia (%) at day 10 [3, 8]: 0.00 (0.00 − 0.00) %
Number of OF1 negative (neg) at day 10 ([3]; 50 mg/kg/d oral, 4 days of treatment, n = 6): (6 0F1 neg)
Parasitemia (%) at day 4 ([3]; 50 mg/kg/d oral, days 0-3): 0.00 (0.00 − 0.00) %
Parasitemia (%) at day 10 ([3]; 50 mg/kg/d oral, days 0-3): 0.00 (0.00 − 0.00) %
Parasitemia (%) at day 4 ([3]; 100 mg/kg/d oral, days 0-3): 0.00 (0.00 − 0.00) %
Parasitemia (%) at day 10 ([3]; 100 mg/kg/d oral, days 0-3): 0.00 (0.00 − 0.00) %
Development of erythrocytic forms of P. berghei [3, 9]: completely and permanently inhibited
Indications of toxicity [3, 9]: no observed indications of any toxicity
IC50 P. berghei, Anka (P. berghei (Anka)): 0.015 µg/mL (≈ 0.0413 µM)
IC50 P. falciparum NF54 strain [1]: 0.005 µg/mL (≈ 0.0138 µM)

COc1cc(O)c(-c2c(C)cc(OC)c3c(OC)cccc23)c2c1[C@H](C)N[C@@H](C)C2 [Hamatine]
IC50 P. berghei, Anka (P. berghei (Anka)): 5.565 µg/mL (≈ 13.7 µM)
IC50 P. falciparum NF54 strain [1]: 3.338 µg/mL (≈ 8.19 µM)

COc1cc(C)cc2c(-c3c(O)cc(O)c4c3C[C@@H](C)N[C@@H]4C)cc(-c3cc(-c4c(O)cc(O)c5c4C[C@@H](C)N[C@@H]5C)c4cc(C)cc(OC)c4c3O)c(O)c12 [Michellamine A]
IC50 P. berghei, Anka (P. berghei (Anka)): >50 µg/mL
IC50 P. falciparum NF54 strain [1]: 46.957 µg/mL (≈ 62 µM)

COc1cccc2c(-c3ccc4c(c3O)C(C)N(C)C(C)C4)c(C)cc(OC)c12 (stereo not shown) [N-methyl-dioncophylline A]
IC50 P. falciparum, K1 strain [2]: 5.749 µg/mL (≈ 14.7 µM)
IC50 P. berghei, Anka (P. berghei (Anka)): 9.207 µg/mL (≈ 23.5 µM)
IC50 P. falciparum NF54 strain [1]: 13.637 µg/mL (≈ 34.8 µM)

Ancistrobrevine D
IC50 P. falciparum, K1 strain [2]: 10.440 µg/mL
IC50 P. berghei, Anka (P. berghei (Anka)): 6.069 µg/mL
IC50 P. falciparum NF54 strain [1]: 12.222 µg/mL

Dioncolactone A
IC50 P. berghei, Anka (P. berghei (Anka)): 0.598 µg/mL
IC50 P. falciparum NF54 strain [1]: 1.337 µg/mL

Dioncophylleine A
IC50 P. falciparum NF54 strain [1]: 21.295 µg/mL

Michellamine B
IC50 P. berghei, Anka (P. berghei (Anka)): >50 µg/mL
IC50 P. falciparum NF54 strain [1]: 20.185 µg/mL

N-formyl-O,O-dimethyl-dioncophylline C
IC50 P. falciparum NF54 strain [1]: >50 µg/mL

N-formyl-ancistrocladine
IC50 P. falciparum NF54 strain [1]: 8.129 µg/mL

N-formyl-dioncophylline C
IC50 P. falciparum NF54 strain [1]: 3.132 µg/mL

N-methyl-ancistrocladine
IC50 P. falciparum NF54 strain [1]: 0.491 µg/mL
